Source: ChEMBL document CHEMBL1268858, “Cytotoxic Hexacyclic Triterpene Acids from Euscaphis japonica” (J Nat Prod, 2010)

Tests used:
[1] = Cytotoxicity against human fibroblast cells at 10 uM after 48 hrs; assay type: cell-based
NCI-H460 [2] = assay: Cytotoxicity against human NCI-H460 cells at 10 uM after 48 hrs; assay type: functional
CCRF-CEM [3] = assay: Cytotoxicity against human CEM cells at 10 uM after 48 hrs; assay type: functional
MCF7 [4] = assay: Cytotoxicity against human MCF7 cells at 10 uM after 48 hrs; assay type: functional
HT-29 [5] = assay: Cytotoxicity against human HT-29 cells at 10 uM after 48 hrs; assay type: functional
HT-29 [6] = assay: Cytotoxicity against human HT-29 cells after 48 hrs; assay type: functional, cell-based; settings: HT-29, 48 h
CCRF-CEM [7] = assay: Cytotoxicity against human CEM cells after 48 hrs; assay type: functional, cell-based
NCI-H460 [8] = assay: Cytotoxicity against human NCI-H460 cells after 48 hrs; assay type: functional, cell-based; settings: NCI-H460, 48 h
MCF7 [9] = assay: Cytotoxicity against human MCF7 cells after 48 hrs; assay type: functional, cell-based; settings: MCF7, 48 h

| SMILES | Activity [1] | Activity (NCI-H460 [2]) | Activity (CCRF-CEM [3]) | Activity (MCF7 [4]) | Activity (HT-29 [5]) | IC50 (HT-29 [6]) | IC50 (CCRF-CEM [7]) | IC50 (NCI-H460 [8]) | IC50 (MCF7 [9]) |
| --- | --- | --- | --- | --- | --- | --- | --- | --- | --- |
| C[C@@H]1CC[C@]2(C(=O)O)CC[C@]3(C)C(=CC[C@@H]4[C@@]5(C)C[C@H](O)[C@H](O)C(C)(C)[C@@H]5CC[C@]43C)[C@@H]2[C@]1(C)O | 107% | 78% | 73% | 70% | 74% | – | – | – | – |
| C[C@@H]1CC[C@]2(C(=O)O)CC[C@]3(C)C(=CC[C@@H]4[C@@]5(C)CC[C@H](O)[C@@](C)(C=O)[C@@H]5CC[C@]43C)[C@@H]2[C@]1(C)O | 99% | 103% | 88% | 93% | 91% | – | – | – | – |
| C[C@H]1[C@H](C)CC[C@]2(C(=O)O)CC[C@]3(C)C(=CC[C@@H]4[C@@]5(C)C[C@@H](O)[C@H](O)C(C)(C)[C@@H]5CC[C@]43C)[C@H]12 [COROSOLIC ACID] | 109% | 89% | 33% | 75% | 68% | > 10 µM | 3.27 µM | > 10 µM | > 10 µM |
| COc1cccc2c1C(=O)c1c(O)c3c(c(O)c1C2=O)C[C@@](O)(C(=O)CO)C[C@@H]3O[C@H]1C[C@H](N)[C@H](O)[C@H](C)O1 [DOXORUBICIN] | – | – | – | – | – | 6.4 µM | 3.14 µM | 6.06 µM | – |
| C[C@@H]1CC[C@]2(C(=O)O)CC[C@]34C[C@]3(C=C[C@@H]3[C@@]5(C)CC[C@H](O)C(C)(C)[C@@H]5CC[C@]34C)[C@@H]2[C@]1(C)O [EUSCAPHIC ACID A] | 100% | 62% | 83% | 85% | 87% | – | – | – | – |
| C[C@@H]1CC[C@]2(C(=O)O)CC[C@]34C[C@]3(C=C[C@@H]3[C@@]5(C)CC[C@H](O)[C@@](C)(CO)[C@@H]5CC[C@]34C)[C@@H]2[C@]1(C)O [EUSCAPHIC ACID B] | 109% | 99% | 80% | 84% | 93% | – | – | – | – |
| C[C@@H]1CC[C@]2(C(=O)O)CC[C@]34C[C@]3(C=C[C@@H]3[C@@]5(C)C[C@@H](O)[C@@H](O)C(C)(C)[C@@H]5CC[C@]34C)[C@@H]2[C@]1(C)O [EUSCAPHIC ACID C] | 119% | 6% | 19% | 10% | 1% | 14.3 µM | 65.3 µM | 2.54 µM | 15.7 µM |
| C[C@@H]1CC[C@]2(C(=O)O)CC[C@]34C[C@]3(C=C[C@@H]3[C@@]5(C)C[C@@H](O)[C@H](O)C(C)(C)[C@@H]5CC[C@]34C)[C@@H]2[C@]1(C)O [EUSCAPHIC ACID D] | 111% | 24% | 55% | 41% | 13% | 34.8 µM | 8.99 µM | 13.3 µM | 3.61 µM |
| C[C@H]1[C@H](C)CC[C@]2(C(=O)O)CC[C@]34C[C@]3(C=C[C@@H]3[C@@]5(C)C[C@@H](O)[C@H](O)C(C)(C)[C@@H]5CC[C@]34C)[C@H]12 [EUSCAPHIC ACID E] | 110% | 91% | 87% | 90% | 86% | – | – | – | – |
| C=C1[C@H](C)CC[C@]2(C(=O)O)CC[C@]34C[C@]3(C=C[C@@H]3[C@@]5(C)C[C@@H](O)[C@H](O)C(C)(C)[C@@H]5CC[C@]34C)[C@H]12 [EUSCAPHIC ACID F] | 115% | 81% | 86% | 76% | 87% | – | – | – | – |
| C[C@@H]1CC[C@]2(C(=O)O)CC[C@]3(C)C(=CC[C@@H]4[C@@]5(C)C[C@@H](O)[C@@H](O)C(C)(C)[C@@H]5CC[C@]43C)[C@@H]2[C@]1(C)O [EUSCAPHIC ACID] | 95% | 104% | 89% | 85% | 85% | – | – | – | – |
| C[C@@H]1CC[C@]2(C(=O)O)CC[C@]3(C)C(=CC[C@@H]4[C@@]5(C)CC[C@H](O)C(C)(C)[C@@H]5CC[C@]43C)[C@@H]2[C@]1(C)O [POMOLIC ACID] | 93% | 82% | 92% | 79% | 91% | – | – | – | – |
| C[C@@H]1CC[C@]2(C(=O)O)CC[C@]3(C)C(=CC[C@@H]4[C@@]5(C)CC[C@H](O)[C@@](C)(CO)[C@@H]5CC[C@]43C)[C@@H]2[C@]1(C)O [ROTUNDIC ACID] | 92% | 85% | 106% | 78% | 101% | – | – | – | – |
| C[C@@H]1CC[C@]2(C(=O)O)CC[C@]3(C)C(=CC[C@@H]4[C@@]5(C)CC[C@H](O)[C@](C)(CO)[C@@H]5CC[C@]43C)[C@@H]2[C@]1(C)O [ROTUNGENIC ACID] | 99% | 106% | 97% | 98% | 91% | – | – | – | – |
| C[C@@H]1CC[C@]2(C(=O)O)CC[C@]3(C)C(=CC[C@@H]4[C@@]5(C)C[C@@H](O)[C@H](O)C(C)(C)[C@@H]5CC[C@]43C)[C@@H]2[C@]1(C)O [TOMENTIC ACID] | 114% | 88% | 93% | 85% | 86% | – | – | – | – |
